Assay results: patent US20080194698A1, “Nmda Receptor Antagonists in the Medical Intervention of Metabolic Disorders” (priority 2005, published 2008)
Read-outs that look alike come from different tables or passages of the source.

Experiments:
[1] = Preliminary clinical trial of memantine in obese, otherwise healthy patients; format: in vivo, human
Experimental: The patients experienced an initial loss of body weight of 1 to 3 kg within a 7 day period. Further weight loss is observed during the course of administration over a longer period of time, see appended FIG. 6.
FIG. 6. Percent body weight decline in seven obese and one overweight subjects (6 females, 2 males) during a two month therapeutical trial with memantine (Axura®, Merz Pharmaceuticals GmbH), 5-10 mg in the morning, and 5-20 mg late in the afternoon (Patient […] initial body weight 126.6 kg, […] initial body weight 90.6 kg, Re initial body weight 93.5 kg, Br initial body weight 122.3 kg, Ku initial body weight 111.0 kg, Ho initial body weight 77.6 kg, Sk (male) initial body weight 148.6 kg, Le (male) initial body weight 109.6 kg).
The following preliminary and limited clinical trials have been carried out in the private practice of the inventor. The trials with memantine are carried out since Feb. 2, 2005, in eight obese, but otherwise healthy patients, 6 females, and 2 males (Table 1; FIG. 6).

[2] = Oral (maternal and offspring feeding) or neonatal s.c. administration of monosodium glutamate to Wistar rats; format: in vivo
Experimental: The effects of oral administration of GLU were investigated in 32 pregnant rats and their offspring up to day 90 of life, in the animal facilities of the Department of Physiology, Medical School, Universidad Complutense, Madrid, Spain. The study was conducted in accordance with the principles and procedures outlined in the NIH Guide for the Care and Use of Laboratory Animals. Pregnant Wistar rats were kept under controlled conditions of light (12 h light/12 h darkness) and temperature (21+/−2C.°), and were fed with tap water and rat chow (Panlab, Barcelona, Spain) ad libitum.
At day 14 of pregnancy, the animals were divided into four groups (n=8), and either received no extra monosodium glutamate (MSG) (control, group 1), or 2.5 g MSG (group 2) or 5 g MSG per day (group 3), up to the end of the weaning period. 2.5 g, respectively 5 g MSG accounted for some 10%, respectively 20% of dry weight of the average daily food ration. After weaning and gender separation, MSG feeding was continued in the offspring at the same concentrations. A fourth group of animals received no MSG, but their offspring was injected with MSG 4 mg/g body weight s.c., at neonatal age as described earlier (Hermanussen, (1996) loc. cit.). Due to the existence of two gender groups a total of 8 experimental groups were obtained with n=6-9 for each group of females and males. All litter was weighed at weekly intervals, and the amount of food consumed was registered daily. Offspring was sacrificed half at day 30 and the rest at day 90 of life.
Half of the animals were killed by decapitation at day 30 and the other half at the end of the observation period at day 90. Anterior pituitaries were removed, and trunk blood was collected. Serum samples and anterior pituitaries after being weighted, were kept at −80° C., for hormonal determinations by specific radioimmunoassays (RIA). Pituitary homogenates were obtained by manual glass homogenizers, and processed in saline after thawing in the moment of the measurement.
Plasma GH levels and pituitary GH content were determined by RIA as previously described.^21 Pituitary homogenates were diluted 1:5000 for determination. Reagents were kindly provided by the National Institute of Diabetes, Digestive and Kidney Diseases (NIDDK). The standard used was rat GH RP2. The sensitivity of the curve was 2 ng/ml and the intraassay coefficient of variation was 5.7%. Plasma IGF I concentrations were measured using a commercially available rat RIA kit (DSL-2900, Diagnostic Systems Laboratories, INC). The sensitivity of the assay was 20 ng/ml, and the intraassay coefficients of variation for mean serum concentrations of 323, 772 and 1604 ng/ml were 5.9%, 6.1% and 3.8%, respectively.
Values are expressed as mean +/−SEM. […] To determine differences in final weight or hormonal levels a two-way ANOVA test was performed. Differences among groups were subjected to a post-hoc comparison by using Tukey HSD for unequal N test. Statistics were executed using Statistica program. The significance level was determined to be p<0.05.

[3] = doses 100 to 1400 mg; seven of 13 female patients; cited from earlier work
[4] = cited from earlier work
[5] = 5 g MSG per day, day 90 of life, p<0.01

Compound: CC12CC3CC(C)(C1)CC(N)(C3)C2 [memantine]
- late afternoon or evening binge-eating disorders (patient report) ([1]; already at the second day of treatment): complete disappeared
- side effects ([1]; initial treatment period): Apart from short moments of mild dizziness at the first day, and mild constipation, there were no side effects
- appetite (patient report) ([1]; obese patients on memantine): significant decrease in appetite
- Weight (kg) after treatment ([1]; patient eight, 93.5 kg, BMI 32.6 before treatment, 56 days of treatment): 91.3 kg
- Weight (kg) after treatment ([1]; patient five, 90.6 kg, BMI 33.3 before treatment, 49 days of treatment): 86.6 kg
- Weight (kg) after treatment ([1]; patient four, 109.6 kg, BMI 31.7 before treatment, 54 days of treatment): 99.4 kg
- Weight (kg) after treatment ([1]; patient one, 111.0 kg, BMI 38.6 before treatment, 56 days of treatment): 104.4 kg
- Weight (kg) after treatment ([1]; patient seven, 77.6 kg, BMI 27.5 before treatment, 77 days of treatment): 71.4 kg
- Weight (kg) after treatment ([1]; patient six, 126.6 kg, BMI 43.3 before treatment, 67 days of treatment): 111.3 kg
- Weight (kg) after treatment ([1]; patient three, 122.3 kg, BMI 42.8 before treatment, 40 days of treatment): 117.5 kg
- Weight (kg) after treatment ([1]; patient two, 148.6 kg, BMI 38.3 before treatment, 25 days of treatment): 144.8 kg

Compound: N[C@@H](CCC(=O)O)C(=O)[O-].[Na+] [MSG, monosodium glutamate]
- food uptake [2, 5]: almost twofold
- water uptake [2, 5]: threefold
- weight increments during weaning ([2]; MSG feeding to the mothers maintained during weaning, p<0.01): subnormal
- appetite ([2]; MSG injected animals, compared to controls): did not show significantly increased appetite
- IGF-1 serum levels ([2]; compared with the GH results, day 30 and day 90 of life): Almost identical results
- serum GH levels ([2]; high MSG diet (5 g MSG per day), day 30 and day 90 of life, p<0.05): as low or even lower than those of MSG injected animals
- birth weight of the offspring ([2]; maternal feeding with 2.5 g MSG per day, compared to controls): no birth weight modification
- birth weight of the offspring ([2]; maternal feeding with 5 g MSG per day, p<0.01): severe birth weight reduction
- appetite ([2]; medium MSG diet (2.5 g MSG per day) and particularly high MSG diet (5 g MSG per day)): marked voracity
- serum GH levels ([2]; medium MSG diet (2.5 g MSG per day), day 30 of life, p<0.01): low
- GH plasma levels of the offspring ([2]; neonatally injected with MSG 4 mg/g body weight s.c., day 30 and day 90 of life, p<0.05): low

Compound: CC1(C)O[C@@H]2[C@@H](CO[C@@]3(COS(N)(=O)=O)OC(C)(C)O[C@@H]23)O1 [topiramate]
- weight loss [3]: > 5 kg
- weight loss ([4]; 64 mg/d, 6 months): 5.0%
- weight loss ([4]; 96 mg, 6 months): 4.8%
- weight loss ([4]; 192 mg, 6 months): 6.3%
- weight loss ([4]; 384 mg, intention-to-treat population, 6 months, placebo 2.6%): 6.3%
- weight loss ([4]; 384-mg dose, completers): up to 8.5%
